Experimental findings from US9688670B2, “Benzimidazole compounds and medical uses thereof” (Sumitomo Dainippon Pharma Co., Ltd., priority 2015, dated 2017) are described below.

In the test the target is human SCN9A (Nav 1.7) (Homo sapiens, UniProt Q15858). Description: Measurement of Na ion current (Nav 1.7 current) by automated patch clamp assay using cells stably-expressing human SCN9A. Format: cell-based. As to conditions: concentration of each compound 10 μmol/L, holding potential inactivating 50% Nav 1.7 channel (around −60 mV), room temperature. The method, then: Measurement of Na Ion Current in Voltage-Dependent Na Channel Gene Expressed Cell Nav 1.7 current was measured by automated patch clamp assay using cells stably-expressing human SCN9A. Cells Stably-Expressing Human SCN9A Tetracycline-induced cells stably-expressing SCN9A were obtained from ChanTest Corporation. […] Next day, the Na ion current was measured by automated patch clamp assay. Electrophysiologic Measurement of Na Ion Current The Na ion current was measured by automated patch clamp assay using the following extracellular solution and intracellular solution. […] The control of the stimulating pulse and the data acquisition were carried out using EPC10 amplifier and Patch Master Software (HEKA). Data were sampled at 10 kHz, and low-pass filtered at 3 kHz. All the measurements were carried out at room temperature. […] The inhibitory rate of the Na ion current by the test compounds was calculated according to the following calculating formula with the peak current value generated by the depolarizing pulse. […] The inhibitory rate of Na ion current by each Example Compound was evaluated.
On the technique in general: Patch clamp records ionic current or voltage across a cell membrane.

Sequence of human SCN9A (Nav 1.7) (Q15858 whole entry): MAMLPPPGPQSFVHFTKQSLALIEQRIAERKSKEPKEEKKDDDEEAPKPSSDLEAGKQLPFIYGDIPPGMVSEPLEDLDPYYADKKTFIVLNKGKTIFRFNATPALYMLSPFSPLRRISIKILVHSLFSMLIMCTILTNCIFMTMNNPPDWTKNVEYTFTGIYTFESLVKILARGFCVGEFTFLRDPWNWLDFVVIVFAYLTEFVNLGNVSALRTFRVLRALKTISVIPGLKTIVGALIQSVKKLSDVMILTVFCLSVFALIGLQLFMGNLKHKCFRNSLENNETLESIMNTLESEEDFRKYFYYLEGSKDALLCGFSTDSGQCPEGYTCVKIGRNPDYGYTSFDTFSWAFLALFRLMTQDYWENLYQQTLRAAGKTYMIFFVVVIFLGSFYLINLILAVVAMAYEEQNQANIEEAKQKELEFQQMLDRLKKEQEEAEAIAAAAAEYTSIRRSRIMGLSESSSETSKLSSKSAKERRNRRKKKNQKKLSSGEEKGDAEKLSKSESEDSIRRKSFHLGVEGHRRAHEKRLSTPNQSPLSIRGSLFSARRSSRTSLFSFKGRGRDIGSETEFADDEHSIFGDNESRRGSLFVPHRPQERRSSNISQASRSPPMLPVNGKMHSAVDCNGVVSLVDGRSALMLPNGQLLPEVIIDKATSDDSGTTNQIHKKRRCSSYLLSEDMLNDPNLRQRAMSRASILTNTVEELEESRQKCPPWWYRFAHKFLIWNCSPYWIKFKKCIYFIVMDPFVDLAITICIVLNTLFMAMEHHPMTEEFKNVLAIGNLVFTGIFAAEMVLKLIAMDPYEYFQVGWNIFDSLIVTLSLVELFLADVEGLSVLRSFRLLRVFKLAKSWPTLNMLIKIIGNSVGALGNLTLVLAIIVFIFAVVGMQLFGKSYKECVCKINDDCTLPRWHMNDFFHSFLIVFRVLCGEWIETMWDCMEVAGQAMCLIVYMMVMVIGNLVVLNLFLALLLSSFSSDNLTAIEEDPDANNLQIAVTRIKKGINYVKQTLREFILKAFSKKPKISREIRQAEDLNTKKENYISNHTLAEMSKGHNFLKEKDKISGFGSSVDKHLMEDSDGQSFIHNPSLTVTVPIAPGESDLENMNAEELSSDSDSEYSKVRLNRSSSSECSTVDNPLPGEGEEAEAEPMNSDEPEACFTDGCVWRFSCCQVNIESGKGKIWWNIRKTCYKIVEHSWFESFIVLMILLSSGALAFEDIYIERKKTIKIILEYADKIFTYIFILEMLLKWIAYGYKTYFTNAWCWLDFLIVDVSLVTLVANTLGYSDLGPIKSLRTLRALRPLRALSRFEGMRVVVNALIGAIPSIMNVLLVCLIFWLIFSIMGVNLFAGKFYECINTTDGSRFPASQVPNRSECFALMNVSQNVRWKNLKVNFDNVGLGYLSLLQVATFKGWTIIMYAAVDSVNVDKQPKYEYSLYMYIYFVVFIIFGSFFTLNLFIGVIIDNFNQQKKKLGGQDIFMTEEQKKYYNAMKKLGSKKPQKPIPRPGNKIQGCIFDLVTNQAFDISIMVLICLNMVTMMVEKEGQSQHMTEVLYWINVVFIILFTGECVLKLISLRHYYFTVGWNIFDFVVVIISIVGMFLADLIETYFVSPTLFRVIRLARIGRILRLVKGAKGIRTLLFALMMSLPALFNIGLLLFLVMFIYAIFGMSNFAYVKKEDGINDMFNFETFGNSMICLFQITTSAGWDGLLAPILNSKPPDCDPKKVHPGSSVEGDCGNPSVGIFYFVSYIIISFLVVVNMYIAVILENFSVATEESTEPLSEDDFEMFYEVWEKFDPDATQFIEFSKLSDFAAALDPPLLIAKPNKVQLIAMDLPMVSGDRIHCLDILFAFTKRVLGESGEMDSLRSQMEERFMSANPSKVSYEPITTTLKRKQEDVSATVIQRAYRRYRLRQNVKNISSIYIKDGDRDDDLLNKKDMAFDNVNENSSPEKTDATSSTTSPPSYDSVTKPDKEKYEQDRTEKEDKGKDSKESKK

Regarding `C[C@]1(O)C[C@@H](n2cnc3ccc(Oc4ccc(C(F)(F)F)cn4)cc32)C1` [Example 121], the inhibition at 10 µM (read-out: Inhibitory rate (%) of Na ion current) is 21%.

Consider `OC1(Cn2cnc3ccc(Oc4ccc(C(F)(F)F)cc4)cc32)COC1` [Example 90], for which the “Inhibitory rate (%) of Na ion current” value came to 15%.
